# From patent US20210337789A1, “Derivatives of m-Guaiacol, Their Preparation and Their Uses” (Universite de Caen Normandie, priority 2018, published 2021)
# Legend:
# [1] = test system: KB cells (epidermoid carcinoma); assay: In vitro cytotoxicity, cell proliferation test (MTS) on KB cells; type: cell-based; conditions: Homo sapiens, KB cells, triplicate, 72 hours of exposure, with respect to DMSO control, read-out: percentage of inhibition of cell growth
# Protocol: The human cell strain KB (epidermoid carcinoma) was obtained from the NCI (National Cancer Institute) and cultivated in the D-MEM medium added with 10% of foetal bovine serum (Invitrogen) in the presence of penicillin, streptomycin and fungizone in flasks of […] under CO2 at 5%. The cells were deposited on tissue culture microplates with 96 wells and a density of 650 cells/well in 200 μl of medium and treated 24 hours later with compounds of the invention dissolved in DMSO at concentrations going from 0.5 nM to 10 μM using a Biomek 3000 (Beckman-Coulter) automaton. The controls received the same volume of DMSO (1% of final volume). After 72 hours of exposure, the MTS reagent (Celltiter 96Aqueous One solution, Promega) was added and incubated for 3 hours at 37° C.: the absorbance was measured at 490 nm and the results of inhibition of the cell proliferation were calculated according to the ratio [(1−(OD490treated/OD490control))×100].
# Results: Cytotoxicity at 10^−5 and 10^−6M on Triplicate KB Cells, Measured after 72 Hours of Exposure.
# The percentage of inhibition of cell growth with respect to the cells receiving the same quantity of DMSO is outlined in the table below.
# [2] = test system: S. aureus strains presenting high levels of resistance; assay: Bacterial growth on S. aureus strains presenting high levels of resistance; type: cell-based, Staphylococcus aureus; set-up: key to Effects (0 < 1 < 2 < 3): 0 = no effect; 1 = pure only; 2 = several concs; 3 = strong at each; key to Δ DO: change in optical density measured at 600 nm; conditions: for Effects (0 < 1 < 2 < 3): molecules at 1, 0.5 and 0.1 mg/ml, triclosan at 0.1 mg/ml
# Protocol: (§1) The bacterial growth is evaluated by measuring the optical density (DO) at 600 nm using NanoDrop.
# (§2) This ratio permits a classification of the molecules in 4 effect levels: • 0=no effect observed; • 1=effect observed only when the molecule is tested pure; • 2=effect observed at several concentrations, but which gradually decreases the dilutions; • 3=strong effect observed at each concentration of molecule tested.
# (§3) Compounds of the invention were tested on 4 strains of E. coli, 3 strains of K. pneumoniae and 4 strains of S. aureus with the resistance profiles below.
# Staphylococcus aureus = assay: Bacterial growth screening on wild-type phenotype strain, S. aureus; type: cell-based
# Protocol: as §1, §2
# (§4) A screening of molecules of the invention on several wild-type phenotype strains has been carried out.
# (§5) The strains initially selected are: • Gram+: Streptococcus equi subsp zooepidemicus and Staphylococcus aureus • Gram−: Escherichia coli, Klebsiella pneumoniae and Stenotrophomonas maltophila.
# [3] = test system: Stenotrophomonas maltophila; assay: Bacterial growth screening on wild-type phenotype strain, S. maltophila; type: cell-based
# Protocol: as §1, §2, §4, §5
# [4] = test system: Streptococcus equi subsp zooepidemicus; assay: Bacterial growth screening on wild-type phenotype strain, S. zooepidemicus; type: cell-based
# Protocol: as §1, §2, §4, §5
# Klebsiella pneumoniae = assay: Bacterial growth screening on wild-type phenotype strain, K. pneumoniae; type: cell-based
# Protocol: as §1, §2, §4, §5
# androgenic receptors = biological target: T1, androgenic receptors (Homo sapiens, UniProt P10275); assay: Affinity test for androgenic receptors, inhibition of bonding of radioactive marked testosterone; type: binding; conditions: 10^−5 M, greater than 50% considered significant, read-out: % of inhibition (average of the two measurements)
# T1 sequence (P10275 1-920): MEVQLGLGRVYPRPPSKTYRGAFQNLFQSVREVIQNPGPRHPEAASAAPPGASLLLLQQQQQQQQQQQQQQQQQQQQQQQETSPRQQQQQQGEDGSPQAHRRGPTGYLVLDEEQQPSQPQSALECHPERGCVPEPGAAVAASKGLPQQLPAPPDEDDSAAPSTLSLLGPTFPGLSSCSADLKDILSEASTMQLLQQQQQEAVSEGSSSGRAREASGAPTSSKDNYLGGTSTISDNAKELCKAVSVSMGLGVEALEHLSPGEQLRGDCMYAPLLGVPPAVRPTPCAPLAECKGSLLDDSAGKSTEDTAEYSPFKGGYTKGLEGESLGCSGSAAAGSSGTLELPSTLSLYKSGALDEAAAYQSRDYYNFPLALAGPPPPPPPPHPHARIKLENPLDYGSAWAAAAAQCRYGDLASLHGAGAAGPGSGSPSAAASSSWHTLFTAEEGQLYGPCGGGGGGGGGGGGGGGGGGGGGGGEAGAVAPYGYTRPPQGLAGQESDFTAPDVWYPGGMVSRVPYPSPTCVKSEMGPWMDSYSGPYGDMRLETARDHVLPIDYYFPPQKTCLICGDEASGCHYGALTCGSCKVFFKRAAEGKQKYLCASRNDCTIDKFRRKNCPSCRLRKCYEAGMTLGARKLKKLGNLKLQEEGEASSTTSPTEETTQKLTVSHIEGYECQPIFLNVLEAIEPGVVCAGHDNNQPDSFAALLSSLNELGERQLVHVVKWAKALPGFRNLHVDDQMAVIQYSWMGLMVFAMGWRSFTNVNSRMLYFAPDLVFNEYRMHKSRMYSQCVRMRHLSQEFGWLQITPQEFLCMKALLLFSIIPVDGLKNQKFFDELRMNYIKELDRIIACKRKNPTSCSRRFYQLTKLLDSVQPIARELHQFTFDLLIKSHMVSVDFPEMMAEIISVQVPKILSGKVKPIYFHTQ
# [5] = test system: K. pneumoniae strains presenting high levels of resistance; assay: Bacterial growth on K. pneumoniae strains presenting high levels of resistance; type: cell-based, Klebsiella pneumoniae; set-up: key to Effects (0 < 1 < 2 < 3): 0 = no effect; 1 = pure only; 2 = several concs; 3 = strong at each; key to Δ DO: change in optical density measured at 600 nm; conditions: for Effects (0 < 1 < 2 < 3): molecules at 1, 0.5 and 0.1 mg/ml, triclosan at 0.1 mg/ml
# Protocol: as §1, §2, §3
# Escherichia coli = assay: Bacterial growth screening on wild-type phenotype strain, E. coli; type: cell-based
# Protocol: as §1, §2, §4, §5
smiles,measurement,setting,value
COc1cc(O)c(Br)c(Cl)c1F [sr7615],inhibition at 10 µM,[1]; 10^−5 M,0%
same,inhibition at 1 µM,[1]; 10^−6 M,0%
same,Δ DO,"[2]; S. aureus Strain 1, 0.1 mg/ml",0.250
same,Δ DO,"[2]; S. aureus Strain 1, 0.5 mg/ml",0.434
same,Δ DO,"[2]; S. aureus Strain 1, 1 mg/ml",0.428
same,Effects (0 < 1 < 2 < 3),[2]; S. aureus Strain 1,3
same,Δ DO,"[2]; S. aureus Strain 2, 0.1 mg/ml",0.308
same,Δ DO,"[2]; S. aureus Strain 2, 0.5 mg/ml",0.412
same,Δ DO,"[2]; S. aureus Strain 2, 1 mg/ml",0.382
same,Effects (0 < 1 < 2 < 3),[2]; S. aureus Strain 2,3
same,Δ DO,"[2]; S. aureus Strain 3, 0.1 mg/ml",0.310
same,Δ DO,"[2]; S. aureus Strain 3, 0.5 mg/ml",0.482
same,Δ DO,"[2]; S. aureus Strain 3, 1 mg/ml",0.445
same,Effects (0 < 1 < 2 < 3),[2]; S. aureus Strain 3,3
same,Δ DO,"[2]; S. aureus Strain 4, 0.1 mg/ml",0.351
same,Δ DO,"[2]; S. aureus Strain 4, 0.5 mg/ml",0.450
same,Δ DO,"[2]; S. aureus Strain 4, 1 mg/ml",0.418
same,Effects (0 < 1 < 2 < 3),[2]; S. aureus Strain 4,3
same,"Effect level, S. aureus",Staphylococcus aureus,3
same,"Effect level, S. maltophila",[3],2
same,"Effect level, S. zooepidemicus",[4],3
same,"Effect level, K. pneumoniae",Klebsiella pneumoniae,2
same,inhibition at 10 µM,androgenic receptors,3.1%
same,Δ DO,"[5]; K. pneumoniae Strain 1, 0.1 mg/ml",0.025
same,Δ DO,"[5]; K. pneumoniae Strain 1, 0.5 mg/ml",0.490
same,Δ DO,"[5]; K. pneumoniae Strain 1, 1 mg/ml",0.640
same,Effects (0 < 1 < 2 < 3),[5]; K. pneumoniae Strain 1,2
same,Δ DO,"[5]; K. pneumoniae Strain 2, 0.1 mg/ml",−0.021
same,Δ DO,"[5]; K. pneumoniae Strain 2, 0.5 mg/ml",0.518
same,Δ DO,"[5]; K. pneumoniae Strain 2, 1 mg/ml",0.621
same,Effects (0 < 1 < 2 < 3),[5]; K. pneumoniae Strain 2,2
same,Δ DO,"[5]; K. pneumoniae Strain 3, 0.1 mg/ml",0.134
same,Δ DO,"[5]; K. pneumoniae Strain 3, 0.5 mg/ml",0.598
same,Δ DO,"[5]; K. pneumoniae Strain 3, 1 mg/ml",0.913
same,Effects (0 < 1 < 2 < 3),[5]; K. pneumoniae Strain 3,2
same,"Effect level, E. coli",Escherichia coli,3
